# “Also recorded” adds a separate entry of the source.
# What was measured:
# [1] = system: rat embryonic cortical neurons (DIV20); assay: Spinogenesis in mature cortical cultures (DIV20); assay type: cell-based; conditions: DIV20, treatment for 24 h
# Procedure: Spinogenesis Experiments. Spinogenesis experiments were performed as previously described with the exception that cells were treated on DIV19 and fixed 24 h after treatment on DIV20. (Ly, C. et al., 2018) The images were taken on a Nikon HCA Confocal microscope a with a 100×/NA 1.45 oil objective. DMSO and ketamine (10 μM) were used as vehicle and positive controls, respectively.
# [2] = system: larval zebrafish; assay: Heart rate and arrhythmia in immobilized larval zebrafish
# [3] = system: C57/BL6J mice; assay: Forced swim test (FST); assay type: in vivo, mouse; conditions: 24 h after drug administration; TBG 50 mg/kg, ketamine 3 mg/kg i.p.
# Procedure: Forced Swim Test (FST). Male C57/BL6J mice (9-10 weeks old at time of experiment, n=10 per condition) were obtained from the Jackson Lab and housed 4-5 mice/cage in a UCD vivarium following an IACUC approved protocol. After 1 week in the vivarium each mouse was handled for approximately 1 minute by a experimenter for 3 consecutive days leading up to the first FST. All experiments were carried out by the same experimenter who performed handling. During the FST, mice underwent a 6 min swim session in a clear Plexiglas cylinder 40 cm tall, 20 cm in diameter, and filled with 30 cm of 24±1° C. water. Fresh water was used for every mouse. After handling and habituation to the experimenter, drug-naïve mice first underwent a pretest swim to more reliably induce a depressive phenotype in the subsequent FST sessions. Immobility scores for all mice were determined after the pre-test and mice were randomly assigned to treatment groups to generate groups with similar average immobility scores to be used for the following two FST sessions. […] Experiments were video-recorded and manually scored offline. Immobility time—defined as passive floating or remaining motionless with no activity other than that needed to keep the mouse's head above water—was scored for the last 4 min of the 6 min trial.
# [4] = system: larval zebrafish expressing GCaMP5; assay: Seizurogenic potential in larval zebrafish expressing GCaMP5; assay type: in vivo; conditions: 200 μM; PTZ positive control
# Procedure: Transgenic larval zebrafish expressing GCaMP5G were immobilized in agarose, treated with compounds, and imaged over time. The known seizure-inducing compound PTZ was used as a positive control. All compounds were treated at 200 μM (n=2 per condition).
# [5] = physchem; conditions: saline or isotonic
# [6] = molecular target: mouse 5-HT2A receptors (Mus musculus, UniProt P35363); assay: 5-HT2A Gq-mediated calcium flux functional assay (mouse); assay type: cell-based
# mouse 5-HT2A receptors, sequence (P35363 whole entry, canonical isoform): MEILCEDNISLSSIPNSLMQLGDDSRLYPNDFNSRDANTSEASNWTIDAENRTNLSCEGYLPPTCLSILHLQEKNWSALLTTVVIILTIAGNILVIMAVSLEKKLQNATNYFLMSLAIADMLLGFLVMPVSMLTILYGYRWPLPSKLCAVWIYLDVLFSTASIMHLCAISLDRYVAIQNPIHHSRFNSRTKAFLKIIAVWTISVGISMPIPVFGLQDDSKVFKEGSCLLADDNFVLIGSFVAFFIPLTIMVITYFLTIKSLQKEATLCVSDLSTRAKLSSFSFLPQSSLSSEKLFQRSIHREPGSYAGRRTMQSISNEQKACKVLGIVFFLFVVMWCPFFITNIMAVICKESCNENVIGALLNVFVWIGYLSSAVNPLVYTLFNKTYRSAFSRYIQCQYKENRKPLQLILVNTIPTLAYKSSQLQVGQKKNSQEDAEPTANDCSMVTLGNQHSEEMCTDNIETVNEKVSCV
# Procedure: Serotonin and Opioid Receptor Functional Assays. Functional assay screens at 5-HT and opioid receptors were performed in parallel using the same compound dilutions and 384-well format high-throughput assay platforms. Assays assessed activity at all human isoforms of the receptors, except where noted for the mouse 5-HT2A receptor. Receptor constructs in pcDNA vectors were generated from the Presto-Tango GPCR library with minor modifications. All compounds were serially diluted in drug buffer (HBSS, 20 mM HEPES, pH 7.4 supplemented with 0.1% bovine serum albumin and 0.01% ascorbic acid) and dispensed into 384-well assay plates using a FLIPR^TETRA (Molecular Devices). Every plate included a positive control such as 5-HT (for all 5-HT receptors), DADLE (DOR), salvinorin A (KOR), and DAMGO (MOR). For measurements of 5-HT2A, 5-HT2B, and 5-HT2C Gq-mediated calcium flux function, HEK Flp-In 293 T-Rex stable cell lines (Invitrogen) were loaded with Fluo-4 dye for one hour, stimulated with compounds and read for baseline (0-10 seconds) and peak fold-over-basal fluorescence (5 minutes) at 25° C. on the FLIPR^TETRA. For measurement of 5-HT6 and 5-HT7a functional assays, Gs-mediated cAMP accumulation was detected using the split-luciferase GloSensor assay in HEKT cells measuring luminescence on a Microbeta Trilux (Perkin Elmer) with a 15 min drug incubation at 25° C. […]
# [7] = system: C57BL/6J mice; assay: Head-twitch response (HTR) assay; conditions: intraperitoneal; fumarate salts; 5-MeO-DMT 10 mg/kg as positive control
# [8] = system: mouse primary sensory cortex; assay: In vivo spine dynamics, transcranial 2-photon imaging; conditions: 24 h after i.p. dose; TBG 50 mg/kg, DOI 10 mg/kg
# Procedure: In Vivo Spine Dynamics. Male and female Thy1-GFP-M line mice (n=5 per condition) were purchased from The Jackson Laboratory (JAX #007788) and maintained in UCSC animal facilities according to an IACUC approved protocol. In vivo transcranial two-photon imaging and data analysis were performed as previously described. Briefly, mice were anesthetized with an intraperitoneal (i.p.) injection of a mixture of ketamine (87 mg/kg) and xylazine (8.7 mg/kg). A small region of the exposed skull was manually thinned down to 20-30 μm for optical access. Spines on apical dendrites in mouse primary sensory cortices were imaged using a Bruker Ultima IV two-photon microscope equipped with an Olympus water-immersion objective (40×, NA=0.8) and a Ti:Sapphire laser (Spectra-Physics Mai-Tai, excitation wavelength 920 nm). Images were taken at a zoom of 4.0 (pixel size 0.143×0.143 μm) and Z-step size of 0.7 μm. The mice received an i.p. injection (injection volume=5 mL/kg) of DOI (10 mg/kg) or TBG (50 mg/kg) immediately after they recovered from anesthesia given prior to the first imaging session. The animals were re-imaged 24 h after drug administration. Dendritic spine dynamics were analyzed using ImageJ. Spine formation and elimination were quantified as percentages of spine number on day 0.
smiles,measurement,setting,value
COc1ccc2c3c([nH]c2c1)CCN(C)CC3 [TBG],dendritic spine density,[1],increases dendritic spine density to a comparable extent as ibogaine
same,heart rate (bradycardia),[2],Neither IBG nor TBG induced these undesirable phenotypes; also recorded: do not induce bradycardia
same,likelihood of arrhythmias (ratio of atrium to ventricle BPM),[2],Neither IBG nor TBG induced these undesirable phenotypes
same,immobility in FST,[3],antidepressant-like effects; also recorded: significantly reduced immobility
same,seizure induction (neural activity),[4],Neither ibogaine nor TBG produced excessive neural activity; also recorded: does not induce seizures
same,solubility,[5],≥ 40 mg/mL
same,agonist activity at mouse 5-HT2A receptors,[6],potent agonist activity
same,hallucinogenic potential (head-twitch response),[7],did not display hallucinogenic potential
same,spine elimination,[8],no effect on spine elimination; also recorded: Neither TBG nor DOI affected spine elimination
same,spine formation,[8],increased spine formation
